“And” between values parts separate entries of the source, which are not always exact repeats. Equal entries are not always repeated.
Assays:
[1] = Influence of phytolization on the stability of retinol, HPLC monitoring; format: physicochemical; conditions: for A (mU), HPLC area, single measurement: 6 mg/L in H2O/iPrOH 1:1, 21° C., ambient light; for A (mU), HPLC area, Average: average of two measurements
Protocol: The HPLC analyzes were carried out with an “Ultimate 3000 system” chain, Dionex®, France on a C18 “Vintage series KR C18—5 μm-150×4.6 mm (Interchim®) column. The samples were detected by UV absorption at λ=325 nm.
Vitamin A (retinol) is known to be sensitive to oxygen and UV radiation. The phytolization process allows retinol to be stabilized.
The solutions of retinol and conjugate 9 in nanoparticulate form (6 mg/L in an H2O/iPrOH 1:1 mixture) were stored at 21° C. in ambient light and analyzed by HPLC over time (24 and 48 h).
The variation in the area of the compounds over time is shown over time (average of two measurements)—see Table 5 and the graph of FIG. 3.

[2] = Stability of the nanoparticulate suspensions over time (DLS); format: physicochemical; conditions: suspension stored at 23° C.
Protocol: The mean particle sizes were measured using the “Dynamic Light Scattering” (DLS) method on a Malvern-Panalytical Nano-Sizer ZS® at 25° C. with a detection angle of 173° and a wavelength of 633 nm. The reported sizes are determined by the mean of three measurements. The measurements were carried out in polystyrene cuvettes.
A solution of conjugate in EtOH (2 mg for 0.5 mL) is added dropwise to vigorously stirred MiliQ water (1 mL). The formation of nanoparticles is observed in that the solution becomes partially cloudy. The suspension that is thus obtained is transferred to a flask and the EtOH is evaporated on a rotary evaporator (200 mbar for 5 min, then 130 mbar for 1 min at 40° C. and at 50 revolutions per minute).
The residual suspension is transferred to a vial and stored at 23° C.
The samples are prepared as follows: 40 μL of the residual suspension is dissolved in 500 μL of MiliQ H2O.
The stability of the suspensions was measured over time and the results are summarized in Tables 2 and 3 and in the graph of FIG. 1 and in the graph of FIG. 2.

Row | Compound | Variation of areas ([1]; t0) | A (mU), HPLC area, single measurement ([1]; t0) | A (mU), HPLC area, Average ([1]; t0) | A (mU), HPLC area, single measurement ([1]; t24 h) | A (mU), HPLC area, Average ([1]; t24 h) | Variation of areas ([1]; t24 h vs t0) | A (mU), HPLC area, single measurement ([1]; t48 h) | A (mU), HPLC area, Average ([1]; t48 h) | Variation of areas ([1]; t48 h vs t0) | d (nm) ([2]; Time 1 h) | d (nm) ([2]; Time 24 h) | d (nm) ([2]; Time 168 h) | d (nm) ([2]; Time 196 h) | Breakdown rate of free retinol compared with conjugate 9 ([1]; free form vs nanoparticulate conjugate, 48 h)
1 | CC1=C(/C=C/C(C)=C/C=C/C(C)=C/COC(=O)CCC(=O)OC/C=C(\C)CCC[C@H](C)CCC[C@H](C)CCCC(C)C)C(C)(C)CCC1 [Conjugate 9, Phytyl Retinyl Succinate] | 0.0000 | 4.1604 mU and 4.0495 mU | 4.1050 mU | 3.4609 mU and 3.3380 mU | 3.3995 mU | 0.1719 | 2.9536 mU and 2.9385 mU | 2.9461 mU | 0.2823 | 167.4 nm | 165.2 nm | 151.8 nm | 131.3 nm | –
2 | Phytyl Ibuprofenate [Conjugate 3] | – | – | – | – | – | – | – | – | – | 132.9 nm | 154.5 nm | 156.6 nm | 164.1 nm | –
3 | Phytyl Diclofenate [Conjugate 4] | – | – | – | – | – | – | – | – | – | 270.0 nm | 369.7 nm | 502.4 nm | 436.8 nm | –
4 | CC1=C(/C=C/C(C)=C/C=C/C(C)=C/CO)C(C)(C)CCC1 [Retinol, retinol] | 0.0000 | 0.0502 mU and 0.0694 mU | 0.0598 mU | 0.0354 mU and 0.0360 mU | 0.0357 mU | 0.4030 | 0.0218 mU and 0.0273 mU | 0.0246 mU | 0.5895 | – | – | – | – | twice as quickly
5 | C/C(=C\COC(=O)CCC(=O)OC1CCC(C(C)(C)C)CC1)CCC[C@H](C)CCC[C@H](C)CCCC(C)C (mixture of isomers) [Conjugate 7, Phytyl (4-tert-butyl cyclohexyl) succinate] | – | – | – | – | – | – | – | – | – | 256.2 nm | 269.7 nm | 271.2 nm | 269.6 nm | –

Source: patent publication US20210361771A1, “TERPENE COUPLING CONJUGATE” (LABORATOIRES ERIGER, priority 2020, published 2021)
